Here are results for twelve compounds from patent publication US10111428B2, “Nematocide containing lactonic ring and preparation method and application thereof” (priority 2015, dated 2018).

Values after ≈ are worked out from the molar mass of the structure shown.

One data set relates to Nematode eggs. The data set can be described thus: Plant pathogenic nematode inhibition test by dipping: nematode egg hatch inhibition (NY/T 1154.5-2006). In kind it is in vivo. The protocol:
A plant pathogenic nematode inhibition test is conducted by dipping with the compounds in Table 1; and by referring to NY/T 1154.5-2006 (Part 5: Dipping Test for Insecticide Ovicidal Activity), the nematode egg hatch inhibition activity of the compounds is tested, as shown in Table 2: […]

The next data set relates to Edaphon. The data set can be described thus: Edaphon toxicity test (Test Guidelines on Environmental Safety Assessment for Chemical Pesticides). The conditions noted are these: 15 d; 100 times of usual dose (simulative usual dose 40 ppm); cell adds 'low toxicity'. The protocol: (§1) According to the earthworm and edaphon toxicity test procedures as prescribed in the Test Guidelines on Environmental Safety Assessment for Chemical Pesticides, earthworm and edaphon toxicity tests are conducted on compounds 1 to 60 from Table 1. The simulative usual dose of pesticide in the edaphon test is 40 ppm.

A further data set has as its system Nematode J2. The data set can be described thus: Plant pathogenic nematode inhibition test by dipping: second-stage juveniles. The data set is classed as in vivo.
Another data set relates to Earthworm. The data set can be described thus: Earthworm toxicity test (Test Guidelines on Environmental Safety Assessment for Chemical Pesticides). The data set is classed as in vivo. The conditions noted are these: cell adds 'low toxicity'. The protocol: as §1

`O=C1CC(C(=O)OCCC(F)=C(F)F)C(c2ccccc2C(F)(F)F)O1` (stereo not drawn) [Compound 46]: the LC50 (commonly the concentration that kills 50% of the test population) amounted to 9.98 µg/mL (≈ 26.1 µM) in the data set with Nematode eggs (in vivo) and 11.24 µg/mL (≈ 29.4 µM) with Nematode J2 (in vivo). In the data set with Edaphon, the “Edaphon Toxicity (15 d) (Inhibition ratio when added amount is 100 times of usual dose)” value is <50%, low toxicity. In the data set on Earthworm, the “Earthworm Toxicity LC50 (14 d)” value is reported as >10, low toxicity mg/L.

Regarding `COc1c(F)cc(C2OC(=O)CC2C(=O)OCCC(F)=C(F)F)cc1F` (stereo not drawn) [Compound 33], the LC50 with Nematode eggs (in vivo) is 12.08 µg/mL (≈ 31.8 µM); in the data set on Nematode J2 (in vivo), 13.37 µg/mL (≈ 35.2 µM). Further, the “Edaphon Toxicity (15 d) (Inhibition ratio when added amount is 100 times of usual dose)” value with Edaphon is on record as <50%, low toxicity. In addition, the “Earthworm Toxicity LC50 (14 d)” value in the data set on Earthworm is on record as >10, low toxicity mg/L.

As for `CCOc1ccc(C2OC(=O)CC2C(=O)OCCC(F)=C(F)F)cc1` (stereo not drawn) [Compound 44], the LC50 was determined as 10.23 µg/mL (≈ 28.6 µM) with Nematode eggs (in vivo) and 13.12 µg/mL (≈ 36.6 µM) in the data set on Nematode J2 (in vivo). Further, the “Edaphon Toxicity (15 d) (Inhibition ratio when added amount is 100 times of usual dose)” value in the data set on Edaphon is <50%, low toxicity. In addition, the “Earthworm Toxicity LC50 (14 d)” value with Earthworm is >10, low toxicity mg/L.

On to `O=C1CC(C(=O)OCCC(F)=C(F)F)C(c2c(Cl)cccc2Cl)O1` (stereo not drawn) [Compound 11], for which the LC50 in the data set with Nematode eggs (in vivo) is 13.30 µg/mL (≈ 34.7 µM); in the data set with Nematode J2 (in vivo), 14.95 µg/mL (≈ 39 µM). Moreover, the “Edaphon Toxicity (15 d) (Inhibition ratio when added amount is 100 times of usual dose)” value with Edaphon is on record as <50%, low toxicity. Further, the “Earthworm Toxicity LC50 (14 d)” value in the data set on Earthworm is reported as >10, low toxicity mg/L.

For `O=C1CC(C(=O)OCCC(F)=C(F)F)C(c2c(F)cccc2Cl)O1` (stereo not drawn) [Compound 16], the LC50 in the data set with Nematode eggs (in vivo) stood at 10.91 µg/mL (≈ 29.8 µM); in the data set on Nematode J2 (in vivo), 12.25 µg/mL (≈ 33.4 µM). Besides, the “Edaphon Toxicity (15 d) (Inhibition ratio when added amount is 100 times of usual dose)” value with Edaphon is <50%, low toxicity. Also, the “Earthworm Toxicity LC50 (14 d)” value with Earthworm is reported as >10, low toxicity mg/L.

In the case of `Cc1ccc(C2OC(=O)CC2C(=O)OCCC=C(F)F)cc1` (stereo not drawn) [Compound 3], the LC50 is 10.01 µg/mL (≈ 32.3 µM) with Nematode eggs (Test object: nematode eggs, dipping) and 10.23 µg/mL (≈ 33 µM) in the data set on Nematode J2 (Test object: nematode J2 (second-stage juveniles), dipping). Besides, in the data set on Edaphon, the “Edaphon Toxicity (15 d) (Inhibition ratio when added amount is 100 times of usual dose)” value was <50%, low toxicity. In the data set on Earthworm, the “Earthworm Toxicity LC50 (14 d)” value is reported as >10, low toxicity mg/L.

For `COc1ccc(C2OC(=O)CC2C(=O)OCCC(F)=C(F)F)c(C(F)(F)F)c1` (stereo not drawn) [Compound 42], the LC50 in the data set on Nematode eggs (in vivo) was 12.39 µg/mL (≈ 30.1 µM); in the data set with Nematode J2 (in vivo), 10.40 µg/mL (≈ 25.2 µM). In addition, in the data set on Edaphon, the “Edaphon Toxicity (15 d) (Inhibition ratio when added amount is 100 times of usual dose)” value was <50%, low toxicity. In addition, the “Earthworm Toxicity LC50 (14 d)” value in the data set with Earthworm is given as >10, low toxicity mg/L.

Consider `O=C1CC(C(=O)OCCC(F)=C(F)F)C(c2cccc(Cl)c2)O1` (stereo not drawn) [Compound 14], for which the LC50 in the data set with Nematode eggs (in vivo) was found to be 12.10 µg/mL (≈ 34.7 µM); in the data set on Nematode J2 (in vivo), 13.01 µg/mL (≈ 37.3 µM). Also, the “Edaphon Toxicity (15 d) (Inhibition ratio when added amount is 100 times of usual dose)” value in the data set with Edaphon is reported as <50%, low toxicity. For the same compound, the “Earthworm Toxicity LC50 (14 d)” value in the data set on Earthworm is >10, low toxicity mg/L.

In the case of `COc1ccc(C2OC(=O)CC2C(=O)OCCC(F)=C(F)F)cc1` (stereo not drawn) [Compound 39], the median lethal concentration (LC50) in the data set with Nematode eggs (in vivo) came to 11.85 µg/mL (≈ 34.4 µM); with Nematode J2 (in vivo) it was 13.40 µg/mL (≈ 38.9 µM). Further, in the data set with Edaphon, the “Edaphon Toxicity (15 d) (Inhibition ratio when added amount is 100 times of usual dose)” value is recorded as <50%, low toxicity. Moreover, the “Earthworm Toxicity LC50 (14 d)” value in the data set on Earthworm is given as >10, low toxicity mg/L.

In the case of `O=C1CC(C(=O)OCCC(F)=C(F)F)C(c2ccc(Cl)cc2Cl)O1` (stereo not drawn) [Compound 9], the LC50 in the data set with Nematode eggs (in vivo) came to 10.36 µg/mL (≈ 27 µM); in the data set with Nematode J2 (in vivo), 13.14 µg/mL (≈ 34.3 µM). Moreover, the “Edaphon Toxicity (15 d) (Inhibition ratio when added amount is 100 times of usual dose)” value in the data set on Edaphon is <50%, low toxicity. The “Earthworm Toxicity LC50 (14 d)” value in the data set on Earthworm is reported as >10, low toxicity mg/L.

Turning to `O=C1CC(C(=O)OCCC(F)=C(F)F)C(c2c(F)c(F)c(F)c(F)c2F)O1` (stereo not drawn) [Compound 29], the LC50 worked out at 12.24 µg/mL (≈ 30.3 µM) in the data set with Nematode eggs (in vivo) and 13.86 µg/mL (≈ 34.3 µM) with Nematode J2 (in vivo). In addition, the “Edaphon Toxicity (15 d) (Inhibition ratio when added amount is 100 times of usual dose)” value in the data set on Edaphon is listed as <50%, low toxicity. Besides, the “Earthworm Toxicity LC50 (14 d)” value in the data set on Earthworm was >10, low toxicity mg/L.

Regarding `COc1ccccc1C1OC(=O)CC1C(=O)OCCC(F)=C(F)F` (stereo not drawn) [Compound 35], the LC50 turned out to be 10.84 µg/mL (≈ 31.5 µM) in the data set with Nematode eggs (in vivo) and 11.67 µg/mL (≈ 33.9 µM) in the data set on Nematode J2 (in vivo). Further, the “Edaphon Toxicity (15 d) (Inhibition ratio when added amount is 100 times of usual dose)” value in the data set on Edaphon is reported as <50%, low toxicity. The “Earthworm Toxicity LC50 (14 d)” value in the data set with Earthworm is reported as >10, low toxicity mg/L.
